In the NIST ThermoML archive (doi:10.1021/je800896m):
“And” between values parts separate entries of the source, which are not always exact repeats. Identical values can stand only once. Numbers after ± are expanded uncertainties.

Settings: Liquid, Closed cell (Static) method

Row | SMILES | vapor or sublimation pressure (318.34 K) [kPa] | vapor or sublimation pressure (346.96 K) [kPa] | vapor or sublimation pressure (318.35 K) | vapor or sublimation pressure (346.14 K) [kPa] | vapor or sublimation pressure (347.06 K) [kPa] | vapor or sublimation pressure (346.97 K) | vapor or sublimation pressure (347.07 K) [kPa]
1 | CC(C)C [2-methylpropane] | 608.3 ± 2.1 | 1177.5 ± 3.7 | – | – | – | – | –
2 | C=C(C)C [2-methylpropene] | – | – | 542.1 ± 1.9 kPa | 1054.9 ± 3.4 | – | – | –
3 | C/C=C/C [(E)-2-butene] | 423.5 ± 1.6 | – | – | – | 868.5 ± 2.8 | – | –
4 | CCCC [butane] | – | – | 437.5 ± 1.6 kPa | – | – | 881.7 ± 2.8 kPa | –
5 | C1CCSC1 [tetrahydrothiophene] | 7.3 ± 0.8 | – | 6.9 ± 0.8 kPa and 6.7 ± 0.8 kPa | 21.4 ± 0.8 | – | 22.2 ± 0.8 kPa and 22.5 ± 0.8 kPa | 22.2 ± 0.8
